{"source": "patent US20240066021A1", "about": "“METHODS FOR OPTIMIZING CFTR-MODULATOR THERAPY” (Children's Hospital Medical Center, priority 2021, published 2024)", "origin": "cited, not measured here", "key": {"mTOR": {"molecular_target": "mTOR (Homo sapiens, UniProt P42345)", "conditions": "Target mTOR, Gene Symbol MTOR"}, "SCN2A": {"molecular_target": "SCN2A (Homo sapiens, UniProt Q99250)"}, "HTR1B": {"molecular_target": "HTR1B (Homo sapiens, UniProt P28222)", "sequence (P28222 whole entry)": "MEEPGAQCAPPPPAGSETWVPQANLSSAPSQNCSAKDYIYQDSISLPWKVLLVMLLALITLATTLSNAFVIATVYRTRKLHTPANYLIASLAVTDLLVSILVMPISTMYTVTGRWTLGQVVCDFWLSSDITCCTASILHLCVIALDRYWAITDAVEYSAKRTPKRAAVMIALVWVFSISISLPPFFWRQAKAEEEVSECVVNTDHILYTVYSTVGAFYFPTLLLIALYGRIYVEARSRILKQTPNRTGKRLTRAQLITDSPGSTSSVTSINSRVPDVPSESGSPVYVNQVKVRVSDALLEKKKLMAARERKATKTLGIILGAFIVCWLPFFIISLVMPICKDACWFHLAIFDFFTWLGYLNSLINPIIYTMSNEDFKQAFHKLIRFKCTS", "conditions": "Target HTR1B, Gene Symbol HTR1B"}, "[1]": {"molecular_target": "PI3K catclass IB(p110-gamma) (Homo sapiens, UniProt P48736)", "sequence (P48736 whole entry)": "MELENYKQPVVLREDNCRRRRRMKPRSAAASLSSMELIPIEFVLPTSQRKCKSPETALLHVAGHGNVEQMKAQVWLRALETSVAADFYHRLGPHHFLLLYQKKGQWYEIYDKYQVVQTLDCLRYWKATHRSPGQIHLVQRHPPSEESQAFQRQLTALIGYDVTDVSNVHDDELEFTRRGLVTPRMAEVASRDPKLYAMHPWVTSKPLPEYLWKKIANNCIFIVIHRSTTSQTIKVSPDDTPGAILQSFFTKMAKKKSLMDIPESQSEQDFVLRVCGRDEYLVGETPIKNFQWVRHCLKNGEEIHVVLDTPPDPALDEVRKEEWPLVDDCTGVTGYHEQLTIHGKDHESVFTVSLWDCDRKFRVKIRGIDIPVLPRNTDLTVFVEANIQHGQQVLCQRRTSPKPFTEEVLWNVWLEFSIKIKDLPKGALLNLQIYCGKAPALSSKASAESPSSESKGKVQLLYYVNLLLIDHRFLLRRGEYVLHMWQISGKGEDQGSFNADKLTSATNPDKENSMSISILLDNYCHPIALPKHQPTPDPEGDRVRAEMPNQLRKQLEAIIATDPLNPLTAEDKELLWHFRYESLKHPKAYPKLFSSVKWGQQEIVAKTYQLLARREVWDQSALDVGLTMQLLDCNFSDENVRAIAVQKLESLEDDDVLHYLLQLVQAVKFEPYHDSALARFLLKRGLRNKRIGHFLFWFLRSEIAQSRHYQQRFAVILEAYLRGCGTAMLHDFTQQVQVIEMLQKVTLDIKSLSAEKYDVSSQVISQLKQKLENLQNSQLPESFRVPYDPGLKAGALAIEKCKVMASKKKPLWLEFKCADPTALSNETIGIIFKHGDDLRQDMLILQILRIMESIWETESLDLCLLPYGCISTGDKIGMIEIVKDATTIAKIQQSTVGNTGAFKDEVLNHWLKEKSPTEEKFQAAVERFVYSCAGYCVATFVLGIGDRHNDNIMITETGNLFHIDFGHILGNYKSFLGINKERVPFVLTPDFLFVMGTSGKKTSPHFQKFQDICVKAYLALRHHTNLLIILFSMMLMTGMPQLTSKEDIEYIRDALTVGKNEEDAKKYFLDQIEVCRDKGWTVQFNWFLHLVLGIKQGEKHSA"}, "NR2A": {"molecular_target": "NR2A (Homo sapiens, UniProt Q12879)", "sequence (Q12879 23-1464, other chains not shown)": "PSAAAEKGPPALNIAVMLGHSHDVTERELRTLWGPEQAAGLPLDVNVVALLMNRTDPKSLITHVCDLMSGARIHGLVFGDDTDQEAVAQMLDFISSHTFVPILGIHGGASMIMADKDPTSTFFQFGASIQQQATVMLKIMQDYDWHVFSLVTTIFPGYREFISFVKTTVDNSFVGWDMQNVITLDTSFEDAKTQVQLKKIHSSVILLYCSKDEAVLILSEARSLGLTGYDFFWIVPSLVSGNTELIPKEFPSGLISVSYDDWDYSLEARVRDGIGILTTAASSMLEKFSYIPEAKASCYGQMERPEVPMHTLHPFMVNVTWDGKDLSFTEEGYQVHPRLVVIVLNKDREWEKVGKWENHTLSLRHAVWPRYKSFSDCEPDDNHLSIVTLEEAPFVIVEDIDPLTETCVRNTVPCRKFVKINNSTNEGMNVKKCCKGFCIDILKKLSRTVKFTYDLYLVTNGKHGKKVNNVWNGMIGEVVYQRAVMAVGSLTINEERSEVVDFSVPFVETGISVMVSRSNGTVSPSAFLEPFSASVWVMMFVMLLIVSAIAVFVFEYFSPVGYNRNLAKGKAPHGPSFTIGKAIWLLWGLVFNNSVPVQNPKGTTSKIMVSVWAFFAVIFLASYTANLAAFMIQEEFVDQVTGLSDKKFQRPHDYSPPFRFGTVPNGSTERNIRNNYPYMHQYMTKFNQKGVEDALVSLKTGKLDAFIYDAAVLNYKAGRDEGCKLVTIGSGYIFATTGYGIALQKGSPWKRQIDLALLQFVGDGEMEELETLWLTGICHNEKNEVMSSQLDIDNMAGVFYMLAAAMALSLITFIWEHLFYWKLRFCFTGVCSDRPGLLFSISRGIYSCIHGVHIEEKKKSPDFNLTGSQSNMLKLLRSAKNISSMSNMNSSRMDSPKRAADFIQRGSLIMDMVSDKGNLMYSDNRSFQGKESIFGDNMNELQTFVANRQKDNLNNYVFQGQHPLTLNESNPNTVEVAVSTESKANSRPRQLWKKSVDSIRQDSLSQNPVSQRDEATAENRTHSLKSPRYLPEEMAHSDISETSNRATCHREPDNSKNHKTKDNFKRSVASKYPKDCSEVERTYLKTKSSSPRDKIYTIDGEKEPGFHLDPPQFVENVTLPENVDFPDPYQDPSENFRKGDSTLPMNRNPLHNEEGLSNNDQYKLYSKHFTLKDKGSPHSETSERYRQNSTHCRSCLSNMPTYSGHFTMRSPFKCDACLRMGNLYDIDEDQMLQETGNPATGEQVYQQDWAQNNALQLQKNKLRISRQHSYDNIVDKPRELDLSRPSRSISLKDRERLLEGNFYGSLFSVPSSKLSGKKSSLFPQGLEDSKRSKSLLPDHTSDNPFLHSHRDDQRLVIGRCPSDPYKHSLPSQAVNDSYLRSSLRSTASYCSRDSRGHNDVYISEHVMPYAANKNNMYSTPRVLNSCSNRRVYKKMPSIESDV"}, "NR2A/NR3A": {"molecular_target": "NR2A/NR3A (Homo sapiens, UniProt Q12879)", "sequence (Q12879 23-1464, other chains not shown)": "as above"}, "Guanylatecyclase A(NPR1)": {"molecular_target": "T1, Guanylatecyclase A(NPR1) (Homo sapiens, UniProt P16066)", "T1 sequence (P16066 33-1061)": "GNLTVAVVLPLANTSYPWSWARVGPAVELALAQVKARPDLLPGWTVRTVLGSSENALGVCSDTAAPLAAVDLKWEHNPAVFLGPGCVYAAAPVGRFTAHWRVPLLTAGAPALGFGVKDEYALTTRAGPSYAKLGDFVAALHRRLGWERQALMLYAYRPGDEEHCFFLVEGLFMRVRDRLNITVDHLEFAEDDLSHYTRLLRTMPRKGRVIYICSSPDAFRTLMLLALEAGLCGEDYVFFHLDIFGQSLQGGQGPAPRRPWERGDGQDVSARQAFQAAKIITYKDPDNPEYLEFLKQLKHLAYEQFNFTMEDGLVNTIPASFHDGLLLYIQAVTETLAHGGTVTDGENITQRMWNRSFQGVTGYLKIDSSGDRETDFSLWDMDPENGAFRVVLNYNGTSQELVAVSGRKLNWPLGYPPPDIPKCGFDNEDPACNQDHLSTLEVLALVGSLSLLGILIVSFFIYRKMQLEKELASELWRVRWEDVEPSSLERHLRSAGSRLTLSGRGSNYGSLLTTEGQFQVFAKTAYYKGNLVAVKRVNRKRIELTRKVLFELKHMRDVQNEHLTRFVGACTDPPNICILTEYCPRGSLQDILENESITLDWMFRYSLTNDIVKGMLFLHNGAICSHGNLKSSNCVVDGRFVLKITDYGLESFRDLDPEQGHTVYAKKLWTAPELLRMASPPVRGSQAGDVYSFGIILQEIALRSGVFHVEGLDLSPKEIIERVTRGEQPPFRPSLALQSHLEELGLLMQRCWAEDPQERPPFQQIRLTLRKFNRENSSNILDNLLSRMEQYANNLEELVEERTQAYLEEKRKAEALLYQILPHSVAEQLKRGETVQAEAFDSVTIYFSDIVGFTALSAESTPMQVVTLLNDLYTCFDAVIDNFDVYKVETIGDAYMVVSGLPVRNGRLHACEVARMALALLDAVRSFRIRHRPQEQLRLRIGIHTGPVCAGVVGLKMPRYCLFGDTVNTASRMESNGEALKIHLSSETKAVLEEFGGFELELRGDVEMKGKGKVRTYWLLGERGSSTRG", "conditions": "Target Guanylatecyclase A(NPR1), Gene Symbol NPR1"}, "IKK-beta": {"molecular_target": "T2, IKK-beta (Homo sapiens, UniProt O14920)", "T2 sequence (O14920 1-756)": "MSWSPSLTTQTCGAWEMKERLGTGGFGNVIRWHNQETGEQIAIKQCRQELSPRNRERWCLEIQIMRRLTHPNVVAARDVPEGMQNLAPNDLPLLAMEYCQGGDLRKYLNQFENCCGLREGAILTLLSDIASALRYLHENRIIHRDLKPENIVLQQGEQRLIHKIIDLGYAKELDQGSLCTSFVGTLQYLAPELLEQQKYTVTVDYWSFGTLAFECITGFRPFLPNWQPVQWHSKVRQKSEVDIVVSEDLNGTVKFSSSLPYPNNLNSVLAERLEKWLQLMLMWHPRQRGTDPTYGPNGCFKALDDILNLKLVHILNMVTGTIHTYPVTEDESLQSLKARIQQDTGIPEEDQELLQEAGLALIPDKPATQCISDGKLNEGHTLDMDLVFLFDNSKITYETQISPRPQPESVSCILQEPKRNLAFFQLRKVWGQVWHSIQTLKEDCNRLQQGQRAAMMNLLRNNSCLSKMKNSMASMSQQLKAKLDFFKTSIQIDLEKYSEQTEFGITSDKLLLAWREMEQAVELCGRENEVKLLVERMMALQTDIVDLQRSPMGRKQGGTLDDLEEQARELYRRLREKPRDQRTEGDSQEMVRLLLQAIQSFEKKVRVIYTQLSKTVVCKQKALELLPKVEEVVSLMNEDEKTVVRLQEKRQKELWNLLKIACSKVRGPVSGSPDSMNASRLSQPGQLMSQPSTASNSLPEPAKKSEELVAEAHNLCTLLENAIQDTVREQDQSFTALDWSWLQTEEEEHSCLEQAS", "conditions": "Target IKK-beta, Gene Symbol IKBKB"}, "TXNRD1": {"molecular_target": "T3, TXNRD1 (Homo sapiens, UniProt Q16881)", "T3 sequence (Q16881 151-649 limits assumed)": "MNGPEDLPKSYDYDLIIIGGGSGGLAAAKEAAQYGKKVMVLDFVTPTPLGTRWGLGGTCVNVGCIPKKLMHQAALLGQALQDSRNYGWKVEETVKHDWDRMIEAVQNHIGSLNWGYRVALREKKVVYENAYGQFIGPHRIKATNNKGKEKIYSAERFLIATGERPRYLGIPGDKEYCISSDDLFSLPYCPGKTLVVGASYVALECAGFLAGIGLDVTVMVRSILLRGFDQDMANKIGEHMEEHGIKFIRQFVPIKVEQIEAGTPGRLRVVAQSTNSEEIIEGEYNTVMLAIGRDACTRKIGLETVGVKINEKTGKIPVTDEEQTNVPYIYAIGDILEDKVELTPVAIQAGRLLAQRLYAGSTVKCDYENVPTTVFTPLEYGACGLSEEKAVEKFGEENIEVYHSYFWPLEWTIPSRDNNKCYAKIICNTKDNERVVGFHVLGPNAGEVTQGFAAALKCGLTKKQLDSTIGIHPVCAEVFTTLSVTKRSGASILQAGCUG"}, "[2]": {"tested_on": "patients with at least one G551D mutation"}, "[3]": {"tested_on": "patients treated with ivacaftor versus patients untreated with CFTR modulators"}, "[4]": {"conditions": "Target NR2A, Gene Symbol GRIN2A"}, "[5]": {"conditions": "six months after drug initiation"}}, "note": "Where two headings read alike, the source gives them in different places."}
{"compound": "CO[C@H]1C[C@@H]2CC[C@@H](C)[C@@](O)(O2)C(=O)C(=O)N2CCCC[C@H]2C(=O)O[C@H]([C@H](C)C[C@@H]2CC[C@@H](OC(=O)C(C)(CO)CO)[C@H](OC)C2)CC(=O)[C@H](C)/C=C(\\C)[C@@H](O)[C@@H](OC)C(=O)[C@H](C)C[C@H](C)/C=C/C=C/C=C/1C", "note": "[Temsirolimus intracellular, Temsirolimus]", "values": [{"measurement": "Effect", "setting": "mTOR", "result": "Inhibition"}]}
{"compound": "CN1CCN(c2ncc(-c3cc(Cl)cc(Cl)c3Cl)c(N)n2)CC1", "note": "[Sipatrigine]", "values": [{"measurement": "Effect", "setting": "SCN2A", "result": "Inhibition"}]}
{"compound": "CN(C)CCc1c[nH]c2ccc(Cn3cncn3)cc12", "note": "[Rizatriptan]", "values": [{"measurement": "Effect", "setting": "HTR1B", "result": "Activation"}]}
{"compound": "Nc1nc(N)c2nc(-c3cccc(O)c3)c(-c3cccc(O)c3)nc2n1", "note": "[TG100115]", "values": [{"measurement": "Effect", "setting": "[1]; Target PI3K catclass IB(p110-gamma), Gene Symbol PIK3CG", "result": "Inhibition"}]}
{"compound": "CNC1(c2ccccc2Cl)CCCCC1=O", "note": "(stereo not shown) [Ketamine]", "values": [{"measurement": "Effect", "setting": "NR2A", "result": "Inhibition"}, {"measurement": "Effect", "setting": "NR2A/NR3A", "result": "Inhibition"}]}
{"compound": "CO[C@H]1C[C@@H]2CC[C@@H](C)[C@@](O)(O2)C(=O)C(=O)N2CCCC[C@H]2C(=O)O[C@H]([C@H](C)C[C@@H]2CC[C@@H](OCCO)[C@H](OC)C2)CC(=O)[C@H](C)/C=C(\\C)[C@@H](O)[C@@H](OC)C(=O)[C@H](C)C[C@H](C)/C=C/C=C/C=C/1C", "note": "[Everolimus]", "values": [{"measurement": "Effect", "setting": "mTOR", "result": "Inhibition"}]}
{"compound": "O=[N+]([O-])O[C@H]1CO[C@H]2[C@@H]1OC[C@H]2O[N+](=O)[O-]", "note": "[Isosorbide dinitrate]", "values": [{"measurement": "Effect", "setting": "Guanylatecyclase A(NPR1)", "result": "Inhibition"}]}
{"compound": "CC(Cc1ccccc1)(NC(=O)CN)c1ccccc1", "note": "(stereo not shown) [Remacemide]", "values": [{"measurement": "Effect", "setting": "NR2A; [4]", "result": "Inhibition"}]}
{"compound": "CO[C@H]1C[C@@H]2CC[C@@H](C)[C@@](O)(O2)C(=O)C(=O)N2CCCC[C@H]2C(=O)O[C@H]([C@H](C)C[C@@H]2CC[C@@H](OP(C)(C)=O)[C@H](OC)C2)CC(=O)[C@H](C)/C=C(\\C)[C@@H](O)[C@@H](OC)C(=O)[C@H](C)C[C@H](C)/C=C/C=C/C=C/1C", "note": "[Ridaforolimus]", "values": [{"measurement": "Effect", "setting": "mTOR", "result": "Inhibition"}]}
{"compound": "CN(C)CCc1c[nH]c2ccc(CS(=O)(=O)N3CCCC3)cc12", "note": "[Almotriptan]", "values": [{"measurement": "Effect", "setting": "HTR1B", "result": "Activation"}]}
{"compound": "C[C@@H]1CN(C(=O)CN2CC(C)(C)OC[C@H]2C(=O)Nc2cc(Cl)cc3c2[nH]c2cnccc23)C[C@H](C)O1", "note": "[MLN0415]", "values": [{"measurement": "Effect", "setting": "IKK-beta", "result": "Inhibition"}]}
{"compound": "NC1=N[C@H](O)[C@H]2[C@H]3O[C@]4(O)O[C@@H]([C@@H](O)[C@@]2(N1)[C@@H]4O)[C@]3(O)CO", "note": "[Tetrodotoxin]", "values": [{"measurement": "Effect", "setting": "SCN2A", "result": "Inhibition"}]}
{"compound": "CN[C@@H]1CCc2[nH]c3ccc(C(N)=O)cc3c2C1", "note": "[Frovatriptan]", "values": [{"measurement": "Effect", "setting": "HTR1B", "result": "Activation"}]}
{"compound": "C=CCN(/C=C1/C(=O)O[C@H](COC)[C@@]2(C)C1=C(O)C(=O)C1=C2[C@H](OC(C)=O)C[C@]2(C)C(=O)CC[C@@H]12)CC=C", "note": "[Sonolisib]", "values": [{"measurement": "Effect", "setting": "[1]", "result": "Inhibition"}]}
{"compound": "CC12CC3CC(C)(C1)CC(N)(C3)C2", "note": "[Memantine]", "values": [{"measurement": "Effect", "setting": "NR2A; [4]", "result": "Inhibition"}, {"measurement": "Effect", "setting": "NR2A/NR3A; Target NR2A/NR3A, Gene Symbol GRIN2A", "result": "Inhibition"}]}
{"compound": "COc1ccc(-c2ccc3c(N4CCOC[C@@H]4C)nc(N4CCOC[C@@H]4C)nc3n2)cc1CO", "note": "[AZD8055]", "values": [{"measurement": "Effect", "setting": "mTOR", "result": "Inhibition"}]}
{"compound": "NC(=O)CNC1Cc2ccccc2C1", "note": "[Indantadol]", "values": [{"measurement": "Effect", "setting": "NR2A; [4]", "result": "Inhibition"}]}
{"compound": "COc1cc(O)c(CC=C(C)C)c(O)c1C(=O)/C=C/c1ccc(O)cc1", "note": "[Xanthohumol]", "values": [{"measurement": "Effect", "setting": "IKK-beta", "result": "Inhibition"}]}
{"compound": "CC(=O)[O-].CC(=O)[O-].CCc1c(CC)c2cc3nc(cnc4cc(OCCOCCOCCOC)c(OCCOCCOCCOC)cc4ncc4nc(cc1[n-]2)C(CCCO)=C4C)C(C)=C3CCCO.O.[Gd+3]", "note": "[Motexafin gadolinium]", "values": [{"measurement": "Effect", "setting": "TXNRD1; Target TXNRD1, Gene Symbol TXNRD1", "result": "Inhibition"}]}
{"compound": "Cn1c(COP(=O)(NCCBr)NCCBr)cnc1[N+](=O)[O-]", "note": "[Evofosfamide]", "values": [{"measurement": "Effect", "setting": "TXNRD1", "result": "Inhibition"}]}
{"compound": "CNS(=O)(=O)CCc1ccc2[nH]cc(C3CCN(C)CC3)c2c1", "note": "[Naratriptan]", "values": [{"measurement": "Effect", "setting": "HTR1B", "result": "Activation"}]}
{"compound": "CC(C)(C)c1cc(C(C)(C)C)c(NC(=O)c2c[nH]c3ccccc3c2=O)cc1O", "note": "[ivacaftor]", "values": [{"measurement": "mean change in ppFEV1", "setting": "[2]; [5]", "result": "6.7 (95% CI 4.9-8.5)"}, {"measurement": "mean change in weight", "setting": "[2]; [5]", "result": 2.5, "unit": "kg"}, {"measurement": "mean decline in sweat chloride", "setting": "[2]; [5]", "result": "−54", "unit": "mEq"}, {"measurement": "quality of life scores", "setting": "[2]; [5]", "result": "improvement"}, {"measurement": "rate of hospitalization", "setting": "[2]; six months after drug initiation, p<0.001", "result": "decreased"}, {"measurement": "portion of subjects with physiologic CFTR correction that did not have improvement in FEV1>5% (poor lung function response)", "setting": "[2]; subjects with sweat chloride shifts by −40 to −80 mEq/L", "result": "~50", "unit": "%"}, {"measurement": "BMI", "setting": "[3]; longer term follow up", "result": "maintain improved"}, {"measurement": "hospitalizations", "setting": "[3]; longer term follow up", "result": "decreasing"}, {"measurement": "pulmonary exacerbations", "setting": "[3]; longer term follow up", "result": "decreasing"}, {"measurement": "lung function decline", "setting": "[3]; versus patients untreated with CFTR modulators", "result": "slowed"}]}
{"compound": "Nesiritide", "values": [{"measurement": "Effect", "setting": "Guanylatecyclase A(NPR1)", "result": "Activation"}]}
